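Exposure lasted 48 hours, with cells grown in 96-well plates and compounds tested at five concentrations. Abbreviation: GI50, concentration required for 50% inhibition of growth. TGI is the concentration that stops growth completely.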

The test relates to MDA-MB-468 breast. Kind of test: inhibition of tumour cell growth, NCI panel, 48 h.
For the compound `Fc1ccc(-c2cc3nc(C(Cl)Cl)nc(-c4ccco4)n3n2)cc1`, the GI50 is 0.242 µM and the TGI turned out to be 0.793 µM. In the case of `C[C@@H](Oc1cc(-n2cnc3ccc(OC4CCN(C)CC4)cc32)sc1C(N)=O)c1ccccc1Cl`, the GI50 is 0.00441 µM and the TGI came to 0.202 µM. Consider `Cc1onc(-c2ccccc2)c1C(=O)N/N=C/c1cc(Cl)cc(Cl)c1O`, for which the GI50 was 3.89 µM and the TGI turned out to be 42.9 µM. The like results for `O=c1c2ccccc2sc2c(NCCCNCCO)nc3ccccc3c12` were, in that order, 1.52 µM and 3.12 µM. The like results for `CNC(=O)c1c(C)oc2cc(Oc3ncnc4cc(OC)c(OC)cc34)ccc12` were, in that order, greater than 100 µM and greater than 100 µM.

Consider `O=C1Nc2c(ccc(Cl)c2Cl)/C1=C/c1cc(Br)c(O)c(Br)c1`, for which the GI50 was 2.96 µM and the TGI was greater than 26.3 µM. The like results for `COc1ccccc1Nc1cc(O)c2c(=O)cc(-c3ccccc3)oc2c1` were, in that order, 1.5 µM and 6.42 µM. The like results for `O=c1oc2ccc(I)cc2c(=O)n1-c1ccc(Br)cc1F` were, in that order, 1.45 µM and 4.88 µM.

As for `CC(=O)O[C@@H]1C2CCC3C(CC[C@@]4(C)C3CC[C@@H]4C(C)N(C)C)[C@@]2(C)CC[C@@H]1NC(=O)C=C(C)C` (some centres not stated), the GI50 is 1.4 µM and the TGI was found to be 3.06 µM.

`Cc1cc2nc(NCCN)n(Cc3ccc(F)c(Cl)c3)c2cc1C`: the GI50 was 3.61 µM and the TGI is 15.8 µM. In the case of `CC(C)(C)C(=O)OCOP(=O)(NCc1ccccc1)C1CCCN(O)C1=O` (configuration not stated), the GI50 was 1.43 µM and the TGI was determined as 5.07 µM. The like results for `Cc1cccc2sc(/N=C(\N)C(Br)Br)nc12` were, in that order, 1.63 µM and 4.58 µM. The like results for `CCOC(=O)c1c(NC(=O)c2ccc(C(F)(F)F)cc2)sc2c(CN3CCN(C)CC3)c(O)ccc12` were, in that order, 1.78 µM and 3.93 µM. The like results for `CNC(=O)c1ccc(N2C(=S)N(c3cnc(C#N)c(C(F)(F)F)c3)C(=O)C23CCC3)cc1F` were, in that order, 49.6 µM and greater than 100 µM. As to `COc1cc2c(cc1OC(C)C)[C@H](c1ccc(Cl)cc1)N(c1ccc(N(C)CC3CCC(N4CCN(C)C(=O)C4)CC3)cc1)C(=O)C2` (some centres not stated), the GI50 is 3.37 µM and the TGI was 8.93 µM. The like results for `CCOC(=O)C1=CCCC[C@H]1S(=O)(=O)Nc1ccc(F)cc1Cl` were, in that order, 10.8 µM and 42.4 µM. The like results for `COc1ccc2ncn(-c3cc(O[C@H](C)c4ccccc4C(F)(F)F)c(C(N)=O)s3)c2c1` were, in that order, 0.067 µM and 1 µM. On to `COc1ccc(C(=O)C(CN(C)C)CN(C)C)cc1`, for which the GI50 was 1.47 µM and the TGI stood at 4.31 µM. The like results for `C=C(c1ccc(OC)c(/C=C/C(=O)c2ccc3c(c2)OCO3)c1)c1cc(OC)c(OC)c(OC)c1` were, in that order, 1.65 µM and 8.92 µM. The like results for `C=CN(C(=O)N1CCN(c2cc3c(cc2F)c(=O)c(C(=O)O)cn3C2CC2)CC1)c1nc(-c2ccc(OC)cc2)cs1` were, in that order, 3.07 µM and 28 µM. The like results for `OC(CNc1ccnc2cc(Cl)ccc12)CNc1ccnc2cc(Cl)ccc12` were, in that order, 1.43 µM and 2.93 µM. For the compound `Cc1ccc(O)c(NC(=O)c2cccc(Nc3ccnc(C(F)(F)F)c3)c2)c1`, the GI50 is 3.19 µM and the TGI was 54.9 µM.

For `CN[C@H]1CN(c2ccc3c(=O)c(C(=O)O)cn(-c4nccs4)c3n2)C[C@@H]1OC`, the GI50 is 0.822 µM and the TGI amounted to 2.86 µM. In the case of `CC[C@H](C)[C@H](NC(=O)[C@H]1CCCCN1C)C(=O)N(C)[C@H](C[C@@H](OC(C)=O)c1cccc(C(=O)N[C@@H](Cc2ccccc2)C[C@H](C)C(=O)OC)n1)C(C)C`, the GI50 was 0.000917 µM. With `CCc1ccc(Oc2c(-c3ccc(OCc4ccc(Cl)cc4)cc3O)n[nH]c2C(F)(F)F)cc1`, the GI50 is 1.73 µM and the TGI came to 3.96 µM. For `Cc1c(C)n(CCCN2CCN(C)CC2)c2ccc(Oc3cccc(C(=O)N4CCN(CCc5ccc(F)cc5)CC4)c3)cc12`, the GI50 was 1.16 µM and the TGI came to 2.47 µM.

For the compound `Fc1ccc(-c2c(-c3ccncc3)nc3n2CCS3)cc1`, the GI50 was greater than 10.4 µM and the TGI is greater than 25 µM. The like results for `COc1ccc(Cn2cc3c(c2-c2cc(OC)c(OC)c(OC)c2)CCCc2cnoc2-3)cc1` were, in that order, 0.563 µM and greater than 100 µM. The like results for `O=C(CSc1nc2c(n1Nc1ccccc1)-c1ccccc1SC2)Nc1nc(-c2ccc(Cl)cc2)cs1` were, in that order, 18 µM and greater than 100 µM. The like results for `Cc1cc2c(C(=O)NC[C@H](C)c3ccccc3)c(O)c(O)cc2c(O)c1-c1c(C)cc2c(C(=O)NC[C@H](C)c3ccccc3)c(O)c(O)cc2c1O` were, in that order, 0.596 µM and 3.38 µM. Regarding `CCOC(=O)c1cc(C(=O)c2ccc(OC)cc2)n2ccc(/C=C/c3cc[n+](CC(=O)c4ccc(OC)cc4)cc3)cc12`, the GI50 was 1.71 µM and the TGI was 3.63 µM. The like results for `CCCCCCCCCCCCCCCC1=NCC[N+]1(CCO)CCO` were, in that order, 2.13 µM and 7.03 µM.

Take `Clc1c(Cl)[n+](Cc2ccc3ccccc3c2)cn1Cc1ccc2ccccc2c1`: the GI50 is 0.668 µM and the TGI was found to be 2.28 µM.

Take `Oc1c(Cl)cc(Cl)c(Cl)c1CNCCNCc1c(O)c(Cl)cc(Cl)c1Cl`: the GI50 was 0.917 µM and the TGI was found to be 5.85 µM. The like results for `O=C1N[C@@H]2[C@@H](O)[C@@H](O)[C@H](O)C[C@H]2c2cc3c(c(O)c21)OCCO3` were, in that order, 0.0955 µM and 0.455 µM.

Consider `COc1cc2c(c(OC)c1OC)-c1ccc(OC)c(=O)cc1C(NC(=O)COc1ccccc1)CC2` (configuration not stated), for which the GI50 was less than 0.01 µM and the TGI was 59.4 µM.

Consider `COc1ccc(C2(Cl)c3ccccc3N(c3ccccc3)c3ccccc32)cc1`, for which the GI50 is 0.391 µM and the TGI stood at 2.1 µM. The like results for `COc1ccc(/C=C\c2cc(OC)c(OC)c(OC)c2)cc1OCC(=O)Nc1nc2ccc(F)cc2s1` were, in that order, 3.68 µM and greater than 100 µM. The like results for `COc1cc(C(=O)NC2CCc3cc(OC)c(OC)c(OC)c3-c3ccc(OC)c(=O)cc32)cc(OC)c1OC` (configuration not stated) were, in that order, 0.0853 µM and greater than 100 µM. As for `COc1cc(/C=C/c2cc(/C=C/c3ccc(O)c(OC)c3)n(C(=O)c3ccc(Cl)cc3)n2)ccc1O`, the GI50 is 2.64 µM and the TGI turned out to be 7.9 µM. Turning to `O=C1NC(=C(Cl)Cl)/C(=N/S(=O)(=O)N2CCCCC2)N1`, the GI50 was 2.39 µM and the TGI was found to be 13.3 µM.

On to `NS(=O)(=O)OC[C@H]1C[C@@H](Nc2ccnc3cc(-c4cccc(SC(F)(F)F)c4)nn23)[C@H](O)[C@@H]1O`, for which the GI50 is less than 0.01 µM and the TGI is less than 0.0127 µM. The like results for `CC(C)C[C@H](NC(=O)CNC(=O)c1cc(Cl)ccc1Cl)B(O)O` were, in that order, less than 0.0137 µM and 0.0217 µM. Consider `O=C(N/N=C/c1ccc([N+](=O)[O-])o1)c1[nH]c2ccc(Br)cc2c1-c1ccccc1`, for which the GI50 was 0.304 µM and the TGI worked out at 1.7 µM.

The values are drawn from PubChem BioAssay (NCI).
